Results taken from ChEMBL document CHEMBL1201862, “PubChem BioAssay data set” (2004).
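Tested at 5 concentrations; 48 h exposure; 96-well plates; endpoints linearly interpolated, else capped at highest concentration. Abbreviation: GI50, concentration required for 50% inhibition of growth.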 The source made the active and inactive calls. Cut-off read from the data, not from the text of the source: active = GI50 up to about 1.1 µM and inactive = higher.

Experiments:
Experiment in all cases: inhibition of tumour cell growth, NCI panel, 48 h
HCC 2998 = system: HCC 2998
Malme-3M = system: Malme-3M
UO-31 = system: UO-31
K562 = system: K562
SK-MEL-2 = system: SK-MEL-2
SK-MEL-28 = system: SK-MEL-28
SF-268 = system: SF-268
SNB-19 = system: SNB-19
HOP-62 = system: HOP-62
DLD-1 = system: DLD-1
LXFL 529 = system: LXFL 529
MOLT-4 = system: MOLT-4
IGROV-1 = system: IGROV-1
HOP-18 = system: HOP-18
NCI-H522 = system: NCI-H522
SW-620 = system: SW-620
EKVX = system: EKVX
SF-539 = system: SF-539
UACC-257 = system: UACC-257
HL-60 = system: HL-60
SK-OV-3 = system: SK-OV-3
786-0 = system: 786-0
RPMI-8226 = system: RPMI-8226
KM-20L2 = system: KM-20L2
SNB-78 = system: SNB-78
SN12C = system: SN12C
NCI-H226 = system: NCI-H226
A498 = system: A498
TK-10 = system: TK-10
ACHN = system: ACHN
XF498 = system: XF498
SF-295 = system: SF-295
M19-MEL = system: M19-MEL
OVCAR-8 = system: OVCAR-8
CCRF-CEM = system: CCRF-CEM
CAKI-1 = system: CAKI-1
LOX IMVI = system: LOX IMVI
U-251 = system: U-251
COLO 205 = system: COLO 205
DMS-114 = system: DMS-114
OVCAR-3 = system: OVCAR-3
UACC-62 = system: UACC-62
A549 = system: A549
NCI-H460 = system: NCI-H460
DMS-273 = system: DMS-273
KM12 = system: KM12
HCT-15 = system: HCT-15
SNB-75 = system: SNB-75
M14 = system: M14
OVCAR-5 = system: OVCAR-5
OVCAR-4 = system: OVCAR-4
SK-MEL-5 = system: SK-MEL-5
NCI-H23 = system: NCI-H23
HT-29 = system: HT-29
RXF 631 = system: RXF 631
HOP-92 = system: HOP-92
RXF 393 = system: RXF 393
HCT-116 = system: HCT-116
SR = system: SR

## COc1ccc2c(c1)[n+]([O-])c(-c1ccc(OC)c(OC)c1)c(N)[n+]2[O-]
HCC 2998
  GI50: > 100 µM (inactive)
Malme-3M
  GI50: 46.3 µM (inactive)
UO-31
  GI50: > 100 µM (inactive)
K562
  GI50: 72.1 µM (inactive)
SK-MEL-2
  GI50: 92.3 µM (inactive)
SK-MEL-28
  GI50: 25.4 µM (inactive)
SF-268
  GI50: 35.2 µM (inactive)
SNB-19
  GI50: 83.2 µM (inactive)
HOP-62
  GI50: > 100 µM (inactive)
DLD-1
  GI50: 78.9 µM (inactive)
LXFL 529
  GI50: 49.8 µM (inactive)
MOLT-4
  GI50: 78.5 µM (inactive)
IGROV-1
  GI50: > 100 µM (inactive)
HOP-18
  GI50: 43.7 µM (inactive)
NCI-H522
  GI50: 15.9 µM (inactive)
SW-620
  GI50: > 100 µM (inactive)
EKVX
  GI50: > 100 µM (inactive)
SF-539
  GI50: 29.4 µM (inactive)
UACC-257
  GI50: 31 µM (inactive)
HL-60
  GI50: 53.2 µM (inactive)
SK-OV-3
  GI50: > 100 µM (inactive)
786-0
  GI50: > 100 µM (inactive)
RPMI-8226
  GI50: > 100 µM (inactive)
KM-20L2
  GI50: 42 µM (inactive)
SNB-78
  GI50: 95.3 µM (inactive)
SN12C
  GI50: 68.9 µM (inactive)
NCI-H226
  GI50: > 100 µM (inactive)
A498
  GI50: > 100 µM (inactive)
TK-10
  GI50: > 100 µM (inactive)
ACHN
  GI50: 51.3 µM (inactive)
XF498
  GI50: > 100 µM (inactive)
SF-295
  GI50: 67.1 µM (inactive)
M19-MEL
  GI50: 54.6 µM (inactive)
OVCAR-8
  GI50: > 100 µM (inactive)
CCRF-CEM
  GI50: 84.1 µM (inactive)
CAKI-1
  GI50: 32.1 µM (inactive)
LOX IMVI
  GI50: > 100 µM (inactive)
U-251
  GI50: 68.7 µM (inactive)
COLO 205
  GI50: 18.7 µM (inactive)
DMS-114
  GI50: 34.1 µM (inactive)
OVCAR-3
  GI50: > 100 µM (inactive)
UACC-62
  GI50: 31.1 µM (inactive)
A549
  GI50: > 100 µM (inactive)
NCI-H460
  GI50: 49.4 µM (inactive)
DMS-273
  GI50: 61.5 µM (inactive)
KM12
  GI50: 98.2 µM (inactive)
HCT-15
  GI50: 37.2 µM
SNB-75
  GI50: > 100 µM (inactive)
M14
  GI50: 57.4 µM (inactive)
OVCAR-5
  GI50: > 100 µM (inactive)
OVCAR-4
  GI50: > 100 µM (inactive)
SK-MEL-5
  GI50: 32.7 µM (inactive)
NCI-H23
  GI50: 21.2 µM (inactive)
HT-29
  GI50: 52.1 µM (inactive)

## CC1(C)C(=NNC(=S)NN)C(C)(C)C1=NNC(=S)NN
HCC 2998
  GI50: > 100 µM (inactive)
Malme-3M
  GI50: > 100 µM (inactive)
K562
  GI50: 43.2 µM (inactive)
SK-MEL-2
  GI50: > 100 µM (inactive)
SK-MEL-28
  GI50: > 100 µM (inactive)
SF-268
  GI50: > 100 µM (inactive)
SNB-19
  GI50: > 100 µM (inactive)
HOP-62
  GI50: > 100 µM (inactive)
DLD-1
  GI50: > 100 µM (inactive)
IGROV-1
  GI50: > 100 µM (inactive)
NCI-H522
  GI50: 75 µM (inactive)
SW-620
  GI50: > 100 µM (inactive)
EKVX
  GI50: > 100 µM (inactive)
SF-539
  GI50: > 100 µM (inactive)
UACC-257
  GI50: > 100 µM (inactive)
HL-60
  GI50: > 10 µM (inactive)
RXF 631
  GI50: > 100 µM (inactive)
SK-OV-3
  GI50: > 100 µM (inactive)
786-0
  GI50: > 100 µM (inactive)
HOP-92
  GI50: > 100 µM (inactive)
RPMI-8226
  GI50: > 100 µM (inactive)
KM-20L2
  GI50: > 100 µM (inactive)
SN12C
  GI50: > 100 µM (inactive)
NCI-H226
  GI50: 4.9 µM (inactive)
TK-10
  GI50: > 100 µM (inactive)
ACHN
  GI50: > 100 µM (inactive)
XF498
  GI50: > 100 µM (inactive)
SF-295
  GI50: > 100 µM (inactive)
M19-MEL
  GI50: > 100 µM (inactive)
OVCAR-8
  GI50: > 100 µM (inactive)
CCRF-CEM
  GI50: 60.8 µM (inactive)
CAKI-1
  GI50: > 100 µM (inactive)
LOX IMVI
  GI50: > 100 µM (inactive)
COLO 205
  GI50: > 100 µM (inactive)
DMS-114
  GI50: > 100 µM (inactive)
OVCAR-3
  GI50: > 100 µM (inactive)
UACC-62
  GI50: > 100 µM (inactive)
A549
  GI50: > 100 µM (inactive)
SNB-75
  GI50: 98.4 µM (inactive)
RXF 393
  GI50: > 100 µM (inactive)
M14
  GI50: > 100 µM (inactive)
OVCAR-5
  GI50: > 100 µM (inactive)
OVCAR-4
  GI50: > 100 µM (inactive)
SK-MEL-5
  GI50: 58.5 µM (inactive)
NCI-H23
  GI50: > 100 µM (inactive)
HT-29
  GI50: > 100 µM (inactive)

## O=C(O)c1ccc(O)c(/N=N/c2cc(S(=O)(=O)O)c3ccccc3c2O)c1
HCC 2998
  GI50: > 100 µM (inactive)
Malme-3M
  GI50: > 100 µM (inactive)
UO-31
  GI50: > 100 µM (inactive)
K562
  GI50: > 100 µM (inactive)
SK-MEL-2
  GI50: > 10 µM (inactive)
SK-MEL-28
  GI50: > 100 µM (inactive)
SF-268
  GI50: > 10 µM (inactive)
SNB-19
  GI50: > 100 µM (inactive)
HOP-62
  GI50: 19.6 µM (inactive)
DLD-1
  GI50: > 100 µM (inactive)
HCT-116
  GI50: 20 µM (inactive)
MOLT-4
  GI50: > 100 µM (inactive)
IGROV-1
  GI50: 45.1 µM (inactive)
SW-620
  GI50: > 100 µM (inactive)
EKVX
  GI50: 23.3 µM (inactive)
SF-539
  GI50: > 10 µM (inactive)
UACC-257
  GI50: > 10 µM (inactive)
HL-60
  GI50: > 100 µM (inactive)
RXF 631
  GI50: > 100 µM (inactive)
SK-OV-3
  GI50: > 10 µM (inactive)
786-0
  GI50: > 100 µM (inactive)
HOP-92
  GI50: > 100 µM (inactive)
RPMI-8226
  GI50: > 100 µM (inactive)
KM-20L2
  GI50: > 100 µM (inactive)
SNB-78
  GI50: > 100 µM (inactive)
SN12C
  GI50: > 100 µM (inactive)
NCI-H226
  GI50: > 100 µM (inactive)
A498
  GI50: > 100 µM (inactive)
TK-10
  GI50: > 100 µM (inactive)
ACHN
  GI50: > 100 µM (inactive)
SF-295
  GI50: > 10 µM (inactive)
M19-MEL
  GI50: 55.6 µM (inactive)
OVCAR-8
  GI50: > 100 µM (inactive)
CAKI-1
  GI50: 54.3 µM (inactive)
LOX IMVI
  GI50: > 100 µM (inactive)
U-251
  GI50: > 100 µM (inactive)
COLO 205
  GI50: 39.8 µM (inactive)
DMS-114
  GI50: 82.6 µM (inactive)
OVCAR-3
  GI50: 92.3 µM (inactive)
A549
  GI50: > 100 µM (inactive)
NCI-H460
  GI50: 37.2 µM (inactive)
DMS-273
  GI50: > 100 µM (inactive)
KM12
  GI50: > 100 µM (inactive)
HCT-15
  GI50: > 10 µM
SR
  GI50: > 100 µM (inactive)
SNB-75
  GI50: > 100 µM (inactive)
RXF 393
  GI50: > 100 µM (inactive)
OVCAR-5
  GI50: > 100 µM (inactive)
OVCAR-4
  GI50: > 100 µM (inactive)
SK-MEL-5
  GI50: > 100 µM (inactive)
NCI-H23
  GI50: > 100 µM (inactive)
HT-29
  GI50: 50.7 µM (inactive)
